Columns and labels:
Assay type in all cases: biochemical
full-length human PHD1 = target: T1, full-length human PHD1 (Homo sapiens, UniProt Q96KS0); experiment: TR-FRET assay, PHD1 enzymatic IC50; conditions: 15 nM PHD1, 1 μM 2-OG
T1 construct: expressed in a baculovirus expression system as the full-length protein; FLAG (N); purchased Active Motif 81064; host or cells: baculovirus expression system
Excerpt: (§1) In the presence of 2-oxoglutarate and O2, PHD enzyme hydroxylates proline 564 of biotin-tagged HIF-1α peptide resulting in generation of biotin-tagged HIF-1α-hydroxyproline, succinate and CO2. The resulting proximity of the donor fluorophore complex, monoclonal antibody anti-6His-Terbium (Tb)-cryptate Gold, bound to the His-tagged VHL protein, EloB, EloC complex (His-VBC) and the acceptor fluorophore, SA-D2 complex, bound to HIF-1α-hydroxyproline results in a fluorescence resonance energy transfer signal that can be detected and quantified
(§2) Time-resolved fluorescence resonance energy transfer (TR-FRET) assay was utilized to determine the enzymatic half maximal inhibitory concentration (IC50) value of PHD inhibitors against the full-length human prolyl-4-hydroxylase domain (PHD) enzymes, PHD1, PHD2, and PHD3. The TR-FRET assay was developed based on the specific binding of hydroxylated HIF-1α peptide with the complex formed by VHL, EloB and EloC (VBC), to generate a fluorescent signal. Terbium (Tb)-Donor (monoclonal antibody anti-6His-Tb-cryptate Gold) and D2-acceptor (streptavidin [SA]-D2) of TR-FRET are linked to the VBC complex and to HIF-1α peptide, respectively. The VBC complex binds specifically to the HIF-1α peptide when it is hydroxylated, allowing energy transfer from TR-FRET donor to acceptor (FIG. 1).
Recombinant human PHD1 protein (catalog #81064, Lot #24717001) was purchased from Active Motif (Carlsbad, Calif., USA). PHD1 was expressed in a baculovirus expression system as the full-length protein (NCBI accession number NP_542770.2) with an N-terminal FLAG tag (molecular weight 44.9 kDa). Purity (>90%) was assessed by SDS-PAGE.
(§3) PHD inhibitor compound was preincubated with PHD enzyme in a 10 μL reaction volume in white 384-well Optiplate microplates (catalog #6007290, Perkin Elmer, Waltham, Mass., USA). For this, 5 μL PHD inhibitor compound was serially diluted with dilution buffer (50 mM HEPES [4-(2-hydroxyethyl)-1-piperazineethanesulfonic acid] pH 7.5, 50 mM sodium chloride [NaCl], 0.01% Tween-20, 0.01% purified bovine serum albumin [BSA]) and mixed with 5 μL PHD enzyme mix prepared as a 4× concentrate in the dilution buffer containing PHD enzyme (60 nM PHD1, 20 nM PHD2, 140 nM PHD3), 40 μM ferrous ammonium sulfate (FAS), 4 mM sodium (Na) ascorbate. The plates were incubated for 30 minutes at room temperature without rotation.
(§4) Five microliters of the VBC/anti-6His-Tb-cryptate Gold mix prepared as a 4×concentrate in dilution buffer containing 20 nM His-VBC, 1.32 nM monoclonal antibody anti-6His-Tb-cryptate Gold was then added. This step was followed immediately by the addition of 5 μL of the HIF-1α C35 substrate mix prepared as a 4×concentrate in the dilution buffer containing 120 nM biotin-labeled HIF-1α C35, 132 nM SA-D2, 4 μM 2-oxoglutarate (2-OG) to reach a final reaction volume of 20 μL.
(§5) The final assay reaction contained 50 mM HEPES, pH 7.5, 50 mM NaCl, 1 μM 2-OG, 10 μM FAS, 1 mM Na ascorbate, 0.01% Tween-20, 0.01% purified BSA, 30 nM biotin-labeled HIF-1α C35, 5 nM His-VBC, 0.33 nM monoclonal antibody anti-6His-Tb-cryptate Gold, 33 nM SA-D2 and PHD enzyme (15 nM PHD1, 5 nM PHD2, or 35 nM PHD3) with the diluted compound.
(§6) For the measurement of the IC50 of PHD inhibitor compound, reactions were incubated for 10 minutes at room temperature and then read on a Perkin Elmer EnVision (Waltham, Mass., USA) at an excitation wavelength of 340 nm and at emission wavelengths of 615 nm and 665 nm. The data represent the quotient of the signal intensity at 665 nm and 615 nm, automatically calculated by Envision Manager software (Perkin Elmer, Waltham, Mass., USA). The IC50 values (mean, standard deviation, standard error of the mean, geometric mean and 95% confidence interval) were determined using a four-parameter curve-fit using GraphPad Prism 7.0 (GraphPad, La Jolla, Calif., USA) and represent the compound concentration plotted against the calculated ratio of 665 nm and 615 nm. […]

full-length human PHD2 = target: T2, full-length human PHD2 (Homo sapiens, UniProt Q9GZT9); experiment: TR-FRET assay, PHD2 enzymatic IC50; conditions: 5 nM PHD2, 1 μM 2-OG
T2 construct: The PHD2 construct contained amino acids 1 to 426 of PHD2; His tag (N, cleaved yes); TEV protease cleavage site (N, cleaved yes); host or cells: Sf9 insect cells (baculovirus)
T2 sequence (Q9GZT9 whole entry, the tested form may be a part): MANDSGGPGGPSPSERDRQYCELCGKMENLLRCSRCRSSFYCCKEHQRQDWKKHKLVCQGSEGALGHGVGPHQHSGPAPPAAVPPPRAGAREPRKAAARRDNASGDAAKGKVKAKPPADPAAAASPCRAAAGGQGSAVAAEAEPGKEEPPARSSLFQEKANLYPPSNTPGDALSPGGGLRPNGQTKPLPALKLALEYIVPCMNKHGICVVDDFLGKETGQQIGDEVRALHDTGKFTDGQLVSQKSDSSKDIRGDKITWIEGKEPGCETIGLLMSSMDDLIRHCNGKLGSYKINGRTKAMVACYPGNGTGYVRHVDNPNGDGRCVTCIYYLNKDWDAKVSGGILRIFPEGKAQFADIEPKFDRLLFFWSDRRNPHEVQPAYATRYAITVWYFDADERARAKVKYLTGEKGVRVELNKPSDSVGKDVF
Excerpt: as §1, §2
The full-length human PHD2 enzyme was produced with a baculovirus infected insect cell (BIIC) expression system by Beryllium (Bedford, Mass., USA). The PHD2 construct contained amino acids 1 to 426 of PHD2 (UniProt Knowledgebase[UniProtKB]/Swiss-Prot accession number Q9GZT9.1), and a His tag and a Tobacco Etch Virus (TEV) protease cleavage site at the N-terminus. The construct was expressed in Sf9 insect cells, purified by Ni-NTA column and digested with TEV protease to remove the His tag.
as §3, §4, §5
For the measurement of the IC50 of PHD inhibitor compound, reactions were incubated for 10 minutes at room temperature and then read on a Perkin Elmer EnVision (Waltham, Mass., USA) at an excitation wavelength of 340 nm and at emission wavelengths of 615 nm and 665 nm. The data represent the quotient of the signal intensity at 665 nm and 615 nm, automatically calculated by Envision Manager software (Perkin Elmer, Waltham, Mass., USA). […]

full-length human PHD3 = target: T3, full-length human PHD3 (Homo sapiens, UniProt Q9H6Z9); experiment: TR-FRET assay, PHD3 enzymatic IC50; conditions: 35 nM PHD3, 1 μM 2-OG
T3 construct: It was expressed in E. coli as the full-length protein; 6-His (N); purchased Active Motif 81033; host or cells: E. coli
T3 sequence (Q9H6Z9 whole entry): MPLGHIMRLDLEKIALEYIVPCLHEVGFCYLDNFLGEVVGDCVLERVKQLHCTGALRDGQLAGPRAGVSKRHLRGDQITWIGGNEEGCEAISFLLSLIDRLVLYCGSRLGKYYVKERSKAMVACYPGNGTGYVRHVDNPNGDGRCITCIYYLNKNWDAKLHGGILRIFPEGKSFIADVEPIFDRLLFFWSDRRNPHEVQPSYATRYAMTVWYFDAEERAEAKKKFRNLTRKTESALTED
Excerpt: as §1, §2
Recombinant human PHD3 protein (molecular weight 31.1 kDa) was purchased from Active Motif (Carlsbad, Calif., USA). It was expressed in E. coli as the full-length protein (NCBI accession number NP_071356.1) with an N-terminal 6-His tag (catalog #81033, Lot #24417001).
as §3, §4, §5, §6

T1 sequence (Q96KS0 whole entry): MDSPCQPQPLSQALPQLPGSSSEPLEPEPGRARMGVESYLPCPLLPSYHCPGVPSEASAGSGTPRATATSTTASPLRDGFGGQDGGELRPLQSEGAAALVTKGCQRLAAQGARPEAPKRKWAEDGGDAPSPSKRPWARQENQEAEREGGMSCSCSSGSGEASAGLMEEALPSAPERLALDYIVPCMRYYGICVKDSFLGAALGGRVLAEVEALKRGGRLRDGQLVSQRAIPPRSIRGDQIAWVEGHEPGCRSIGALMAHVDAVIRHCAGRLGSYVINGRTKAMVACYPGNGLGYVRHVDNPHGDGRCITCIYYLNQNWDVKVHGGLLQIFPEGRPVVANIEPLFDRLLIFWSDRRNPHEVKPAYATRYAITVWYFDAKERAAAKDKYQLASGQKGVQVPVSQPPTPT

| Compound | IC50 (full-length human PHD1) | IC50 (full-length human PHD2) | IC50 (full-length human PHD3) |
| --- | --- | --- | --- |
| N#Cc1ccc(-c2cnn(-c3ccc(-n4cccn4)cn3)c2O)cc1 [Compound 10, 4-(1-(5-(1H-pyrazol-1-yl)pyridin-2-yl)-5-hydroxy-1H-pyrazol-4-yl)benzonitrile] | < 100 nM | < 100 nM | 100 to 1000 nM |
| N#Cc1ccc(-c2cnn(-c3ccc(-c4ncco4)cn3)c2O)cc1 [Compound 11, 4-(5-hydroxy-1-(5-(oxazol-2-yl)pyridin-2-yl)-1H-pyrazol-4-yl)benzonitrile] | < 100 nM | < 100 nM | 100 to 1000 nM |
| N#Cc1ccc(-c2cnn(-c3ccc(-c4nccs4)cn3)c2O)cc1 [Compound 12, 4-(5-hydroxy-1-(5-(thiazol-2-yl)pyridin-2-yl)-1H-pyrazol-4-yl)benzonitrile] | < 100 nM | < 100 nM | < 100 nM |
| N#Cc1ccc(-c2cnn(-c3ccc(N4CCCC4=O)cn3)c2O)cc1 [Compound 15, 4-(5-hydroxy-1-(5-(2-oxopyrrolidin-1-yl)pyridin-2-yl)-1H-pyrazol-4-yl)benzonitrile] | < 100 nM | < 100 nM | < 100 nM |
| N#Cc1ccc(-c2cnn(-c3ccc(F)cn3)c2O)cc1 [Compound 17, 4-(1-(5-fluoropyridin-2-yl)-5-hydroxy-1H-pyrazol-4-yl)benzonitrile] | < 100 nM | < 100 nM | 100 to 1000 nM |
| CS(=O)(=O)c1ccc(-n2ncc(-c3ccc(Cl)cc3)c2O)nc1 [Compound 19, 4-(4-chlorophenyl)-1-(5-(methylsulfonyl)pyridin-2-yl)-1H-pyrazol-5-ol] | < 100 nM | < 100 nM | 100 to 1000 nM |
| CS(=O)(=O)c1ccc(-n2ncc(-c3ccc(F)cc3)c2O)nc1 [Compound 20, 4-(4-fluorophenyl)-1-(5-(methylsulfonyl)pyridin-2-yl)-1H-pyrazol-5-ol] | < 100 nM | < 100 nM | ≥ 10000 nM |
| N#Cc1ccc(-c2cnn(-c3ccc(NC(=O)C4CC4)cn3)c2O)cc1 [Compound 22, N-(6-(4-(4-cyanophenyl)-5-hydroxy-1H-pyrazol-1-yl)pyridin-3-yl)-cyclopropanecarboxamide] | < 100 nM | < 100 nM | 100 to 1000 nM |
| CCC(=O)Nc1ccc(-n2ncc(-c3ccc(C#N)cc3)c2O)nc1 [Compound 23, N-(6-(4-(4-cyanophenyl)-5-hydroxy-1H-pyrazol-1-yl)pyridin-3-yl)propionamide] | < 100 nM | < 100 nM | < 100 nM |
| CS(=O)(=O)Nc1ccc(-n2ncc(-c3ccc(C#N)cc3)c2O)nc1 [Compound 24, N-(6-(4-(4-cyanophenyl)-5-hydroxy-1H-pyrazol-1-yl)pyridin-3-yl)methanesulfonamide] | < 100 nM | < 100 nM | < 100 nM |
| CCS(=O)(=O)Nc1ccc(-n2ncc(-c3ccc(C#N)cc3)c2O)nc1 [Compound 25, N-(6-(4-(4-cyanophenyl)-5-hydroxy-1H-pyrazol-1-yl)pyridin-3-yl)ethanesulfonamide] | < 100 nM | < 100 nM | < 100 nM |

Reference: patent US20230212138A1, “PHD INHIBITOR COMPOUNDS, COMPOSITIONS, AND THEIR USE” (Akebia Therapeutics, Inc., priority 2020, published 2023)
